No end group written: not given here. YFP = yellow fluorescent protein
Columns and labels:
AqTNKS ART = molecular target: T1, AqTNKS ART (Amphimedon queenslandica, UniProt A0AAN0IWK4); test: differential scanning fluorimetry (SYPRO orange); type: binding; conditions: […] protein, […] compound, pH […]
T1 construct: catalytic ART domain, Thr968-Thr1181; MBP tag removed by TEV; E. coli BL21(DE3), codon-optimized

TNKS1 ART = molecular target: T2, TNKS1 ART (Homo sapiens, UniProt O95271); test: differential scanning fluorimetry (SYPRO orange); type: binding; conditions: […] protein, […] compound, pH […]; adenosine site
T2 construct: gene TNKS; catalytic ART domain; E. coli BL21(DE3)
T2 sequence (O95271 1105-1327 limits assumed): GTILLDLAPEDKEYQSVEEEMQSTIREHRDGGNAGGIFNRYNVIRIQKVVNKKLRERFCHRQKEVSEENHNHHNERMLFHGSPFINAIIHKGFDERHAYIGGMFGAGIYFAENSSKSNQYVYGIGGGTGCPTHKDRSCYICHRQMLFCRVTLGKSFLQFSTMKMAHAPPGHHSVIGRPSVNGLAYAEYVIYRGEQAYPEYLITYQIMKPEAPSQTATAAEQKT

TNKS1 SAM-ART = molecular target: T3, TNKS1 SAM-ART (Homo sapiens, UniProt O95271); test: auto-PARylation, Western blot; type: biochemical; conditions: […] protein; biotin-NAD+/NAD+ ([…]), […] total; […] h, room temperature; labelled compound as tracer
T3 construct: gene TNKS; SAM and ART domains; N-terminal MBP tag kept; E. coli BL21(DE3)
T3 sequence (O95271 1030-1327 limits assumed): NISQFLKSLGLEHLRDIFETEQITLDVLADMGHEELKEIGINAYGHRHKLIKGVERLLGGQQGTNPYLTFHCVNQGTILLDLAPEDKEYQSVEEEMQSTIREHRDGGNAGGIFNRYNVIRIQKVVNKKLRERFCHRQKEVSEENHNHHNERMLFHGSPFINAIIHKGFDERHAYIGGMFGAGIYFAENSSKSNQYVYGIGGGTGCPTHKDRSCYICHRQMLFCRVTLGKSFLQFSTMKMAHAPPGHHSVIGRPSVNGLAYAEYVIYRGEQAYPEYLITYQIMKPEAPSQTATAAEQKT

AqTNKS SAM-ART = molecular target: T4, AqTNKS SAM-ART (Amphimedon queenslandica, UniProt A0AAN0IWK4); test: auto-PARylation, Western blot; type: biochemical; conditions: […] protein; biotin-NAD+/NAD+ ([…]), […] total; […] h, room temperature; labelled compound as tracer
T4 construct: SAM and ART domains, Pro889-Thr1181; N-terminal MBP tag kept; E. coli BL21(DE3); forms multimers
T4 sequence (A0AAN0IWK4 entry or part of it): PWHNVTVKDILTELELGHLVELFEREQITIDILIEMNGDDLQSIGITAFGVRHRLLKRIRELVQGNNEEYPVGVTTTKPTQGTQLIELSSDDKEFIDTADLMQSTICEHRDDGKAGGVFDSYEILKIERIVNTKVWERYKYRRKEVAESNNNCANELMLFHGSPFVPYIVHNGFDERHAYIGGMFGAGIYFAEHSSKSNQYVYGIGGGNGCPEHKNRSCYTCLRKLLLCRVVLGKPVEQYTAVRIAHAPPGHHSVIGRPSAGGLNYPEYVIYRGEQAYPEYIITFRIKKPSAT

CFP-ARC5 (AqTNKS) = molecular target: T5, CFP-ARC5 (AqTNKS) (Amphimedon queenslandica); test: FRET
T5 chain: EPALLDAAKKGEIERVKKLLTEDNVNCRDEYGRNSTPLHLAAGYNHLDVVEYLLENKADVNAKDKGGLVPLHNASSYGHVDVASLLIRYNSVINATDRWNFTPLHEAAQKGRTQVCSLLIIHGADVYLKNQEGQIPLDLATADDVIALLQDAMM

T1 sequence (A0AAN0IWK4 entry or part of it): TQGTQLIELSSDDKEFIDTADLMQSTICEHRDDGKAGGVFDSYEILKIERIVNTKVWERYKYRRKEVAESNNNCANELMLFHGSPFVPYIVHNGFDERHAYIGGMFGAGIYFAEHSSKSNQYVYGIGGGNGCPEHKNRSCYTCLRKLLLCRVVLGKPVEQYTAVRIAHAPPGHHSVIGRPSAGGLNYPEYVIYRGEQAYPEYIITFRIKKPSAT

In the case of `Cc1cc(N2C[C@@H](C)N[C@@H](C)C2)ncc1-c1ccc(-c2nc3c(ccn3C)c(=O)[nH]2)cc1` [AZ6102], the Tm shift (AqTNKS ART; nicotinamide site, compound named in Results but not in the Methods list) is reported as “For all inhibitors, the melting temperatures for both TNKS1 and AqTNKS were similarly increased”.

For `O=c1[nH]nc2c3c(cccc13)NC(CN1Cc3ccccc3C1)=N2` [E7449], the Tm shift (AqTNKS ART; nicotinamide site) was “For all inhibitors, the melting temperatures for both TNKS1 and AqTNKS were similarly increased”.

For `CS(=O)(=O)c1ccc(-c2nnc(/C=C/c3nnc(-c4ccc(C#N)cc4)o3)n2-c2ccccc2Cl)nc1` [G007-LK], the Tm shift (TNKS1 ART) was “For all inhibitors, the melting temperatures for both TNKS1 and AqTNKS were similarly increased” and the Tm shift (AqTNKS ART; adenosine site) was “For all inhibitors, the melting temperatures for both TNKS1 and AqTNKS were similarly increased”.

For `NC(=O)c1ccc[n+]([C@@H]2O[C@H](COP(=O)(O)OP(=O)(O)OC[C@H]3O[C@@H](n4cnc5c(N)ncnc54)[C@H](O)[C@@H]3O)[C@@H](O)[C@H]2O)c1` [NAD^+], the “auto-PARylation, Western blot” value (TNKS1 SAM-ART) was “PARylation of the proteins was clearly detected for the SAM-ART constructs of AqTNKS and TNKS1” and the “auto-PARylation, Western blot” value (AqTNKS SAM-ART) was “PARylation of the proteins was clearly detected for the SAM-ART constructs of AqTNKS and TNKS1”.

In the case of `COc1ccc(C(=O)C2CCN(CC(=O)N(Cc3nc4c(c(=O)[nH]3)COCC4)CC3CC3)CC2)cc1` [NVP-TNKS656], the Tm shift (AqTNKS ART; dual site) is reported as “For all inhibitors, the melting temperatures for both TNKS1 and AqTNKS were similarly increased”.

For `O=c1[nH]c(-c2ccc(C(F)(F)F)cc2)nc2c1CSCC2` [XAV939], the Tm shift (AqTNKS ART; nicotinamide site) was “For all inhibitors, the melting temperatures for both TNKS1 and AqTNKS were similarly increased”.

{YFP}-REAGDGEE [YFP-REAGDGEE] gave a Kd (CFP-ARC5 (AqTNKS)) of 98.5 nM.

— publication PMC9688111, “An Evolutionary Perspective on the Origin, Conservation and Binding Partner Acquisition of Tankyrases” (Biomolecules, 2022)
